Patent US4489091A, “Antilipemic and anti-inflammatory compositions containing sulfonate derivatives” (Taiho Pharmaceutical Company Limited, priority 1980, dated 1984)
Read-outs that look alike come from different tables or passages of the source.

Columns and labels:
esterase = test: Esterase inhibiting activity; type: biochemical; conditions: rat liver microsome esterase, methyl butyrate substrate, pH 8.0, 37° C., 60 minutes; read-out: IC50 for esterases
Procedure: A 10 micromole quantity of methyl butyrate in a 50% ethanol solution is added as a substrate to a specified amount of buffer solution containing 0.1 mole of trishydrochloric acid (pH 8.0). To the mixture is further added a 50% ethanol solution of the compound of the invention, immediately followed by addition of an esterase solution prepared from a purified microsome fraction of the liver of a rat (adjusted to hydrolyze 9 micromoles of methyl butyrate at 37° C. in one hour) as an enzyme solution. The mixture is reacted at 37° C. for 60 minutes.
After the reaction, alkaline hydroxylamine is added to the mixture to form a hydroxamic acid derivative of methyl butyrate, and a ferric salt is added to the derivative. The resulting red color is colorimetrically determined (at a wavelength of 540 nm) to determine the amount of remaining methyl butyrate. The esterase inhibiting ratios of the present compound at least at three concentrations are plotted as ordinate, and the logarithms of the concentrations as abscissa to obtain a line, which gives the 50% inhibition concentration (IC50).

chymotripsin = chymotripsin (Bos taurus, UniProt P00766); test: Chymotripsin inhibiting activity; type: biochemical; conditions: 0.5 h; compound 1×10^-4 mole, ATEE substrate, pH 8.0, 37° C.; read-out: Percent chymotripsin inhibition
Procedure: Chymotripsin (0.1 unit) serving as an enzyme solution is added to a specified quantity of buffer solution containing 0.1 mole of trishydrochloric acid (pH 8.0). To the mixture is further added a 50% ethanol solution of the compound of the invention so that the resulting mixture contains the compound in a concentration of 1×10^-4 mole. The mixture is reacted at 37° C. for 20 minutes.
On completion of the reaction, 10 micromoles of N-acetyl-L-thyrosine ethyl ester (ATEE) serving as a substrate is added to the mixture, and the resulting mixture is reacted at 37° C. for 30 minutes.
After the completion of the reaction, the amount of remaining ATEE is determined by the same hydroxamic acid method as above. The percent chymotripsin inhibition is given by [formula] wherein A is the amount of hydrolyzed esters in the reaction system not containing the compound of the invention, and B is the amount of hydrolyzed esters in the reaction system containing the present compound.

Acute toxicity = conditions: rat, in vivo
Text: Six-week-old male Wistar rats weighing 180 to 200 g are used, 5 rats in each group. Each compound of the invention is suspended in a 30% aqueous solution of polyethylene glycol 6000 and orally given to the rat at the dosage shown in Table 2. The animals are checked for poisoning, body weight and survival to determine the LD50 value.

triglycerides = test: Antilipemic effect: percent triglycerides inhibition in plasma of rats given an olive oil-cholesterol mixture; type: in vivo, male Wistar rats; conditions: for inhibition in vivo at 100 mg/kg: read-out: Anti-lipemic effect, TG (percent triglycerides inhibition); for inhibition in vivo at 200 mg/kg: oral 200 mg/kg (asterisked values), read-out: Anti-lipemic effect, TG (percent triglycerides inhibition), asterisked
Summary of the method: (§1)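 Male Wistar rats, seven weeks old, 200 to 220 g, 5 per group, dosed orally at 100 or 200 mg/kg in olive oil-cholesterol mixture (15% cholesterol) at 10 ml/kg. Plasma triglycerides measured at 2 hours, total cholesterol at 8 hours, by enzymatic kits; percent inhibition calculated relative to vehicle control and untreated normal groups.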

cholesterol = test: Antilipemic effect: percent total cholesterol inhibition in plasma of rats given an olive oil-cholesterol mixture; type: in vivo, male Wistar rats; conditions: for inhibition in vivo at 100 mg/kg: read-out: Anti-lipemic effect, CS (percent cholesterol inhibition); for Anti-lipemic effect, CS (percent cholesterol inhibition), asterisked: oral 200 mg/kg (asterisked values)
Summary of the method: as §1

[1] = oral 100 mg/kg, plasma 2 hours after dosing, Wistar rat
[2] = oral 100 mg/kg, plasma 8 hours after dosing, Wistar rat
[3] = oral, six-week-old male Wistar rats, suspended in 30% aqueous polyethylene glycol 6000, read-out: LD50
[4] = plasma 2 hours after dosing, Wistar rat
[5] = plasma 8 hours after dosing, Wistar rat

Compound | IC50 (esterase) [nM] | inhibition at 100 µM (chymotripsin) [%] | LD50 (Acute toxicity; po) [mg/kg] | inhibition in vivo at 100 mg/kg (triglycerides; [1]) [%] | inhibition in vivo at 100 mg/kg (cholesterol; [2]) [%] | LD50 (Acute toxicity; [3]) [mg/kg] | inhibition in vivo at 100 mg/kg (triglycerides; Rattus norvegicus, po, 2 h) [%] | inhibition in vivo at 100 mg/kg (cholesterol; Rattus norvegicus, po, 8 h) [%] | inhibition in vivo at 200 mg/kg (triglycerides; [4]) [%] | Anti-lipemic effect, CS (percent cholesterol inhibition), asterisked (cholesterol; [5]) [%]
CCCC(=O)COS(=O)(=O)c1ccc2ccccc2c1 [Compound 5] | 3600 | 17 | > 2500 | 86 | 73 | – | – | – | – | –
CCCCCC(=O)COS(=O)(=O)c1ccccc1 [Compound 8] | 72 | 100 | > 2000 | 87 | 60 | – | – | – | – | –
CCCCCCC(=O)COS(=O)(=O)c1ccccc1 [Compound 9] | 68 | 96 | > 3000 | 88 | 62 | – | – | – | – | –
CCCCCCCCCC(=O)COS(=O)(=O)c1ccccc1 [Compound 10] | 7.6 | 14 | – | – | – | > 3000 | 80 | 61 | – | –
C=CCCC(=O)COS(=O)(=O)c1ccccc1 [Compound 14] | 520 | 25 | > 2000 | 92 | 62 | – | – | – | – | –
CCCCCC(=O)COS(=O)(=O)c1ccc(C)cc1 [Compound 18] | 1600 | 77 | > 3000 | 94 | 40 | – | – | – | – | –
CCCCCCC(=O)COS(=O)(=O)c1ccc(C)cc1 [Compound 19] | 3400 | 100 | > 3000 | 78 | 41 | – | – | – | – | –
CCCCCCC(=O)COS(=O)(=O)c1ccccc1C [Compound 31] | 17 | 100 | > 2000 | 61 | 31 | – | – | – | – | –
CCCCC(CC)C(=O)COS(=O)(=O)c1ccccc1C (centres unmarked) [Compound 32] | 350 | 0.4 | > 3000 | 70 | 43 | – | – | – | – | –
CCCCCCCC(=O)COS(=O)(=O)c1ccc(OC)cc1 [Compound 37] | 150 | 91 | > 3000 | 62 | 62 | – | – | – | – | –
CCCCCCCCCC(=O)COS(=O)(=O)c1ccc(OC)cc1 [Compound 38] | 100 | 45 | > 4000 | – | – | – | – | – | 67 | –
CCCCCCCC(=O)COS(=O)(=O)c1ccc(OCC)cc1 [Compound 47] | 590 | 67 | > 4000 | – | 60 | – | – | – | 82 | –
CCCCC(CC)C(=O)COS(=O)(=O)c1ccc(OCC)cc1 (centres unmarked) [Compound 50] | 21000 | 31 | > 4500 | 80 | 94 | – | – | – | – | –
CCCCCCCC(=O)COS(=O)(=O)c1ccc(OCCCC)cc1 [Compound 56] | 1000 | 50 | > 3000 | – | – | – | – | – | 64 | 42
CCCCCCCCCCCC(=O)COS(=O)(=O)c1ccc(O)cc1 [Compound 62] | 29 | 93 | > 3000 | – | – | – | – | – | 72 | –
CCCC(=O)COS(=O)(=O)c1c(C)cc(C)cc1C [Compound 73, 2-oxopentyl-2,4,6-trimethylbenzenesulfonate] | 1000 | 13 | – | 92 | 90 | > 3000 | – | – | – | –
CCCCCCCCC(=O)COS(=O)(=O)c1c(C)cc(C)cc1C [Compound 78] | 0.63 | 72 | > 4000 | 56 | 61 | – | – | – | – | –

Compound | IC50 (esterase) [nM] | inhibition at 100 µM (chymotripsin) [%] | LD50 (Acute toxicity; po) [mg/kg] | inhibition in vivo at 100 mg/kg (triglycerides; [1]) [%] | inhibition in vivo at 100 mg/kg (cholesterol; [2]) [%] | LD50 (Acute toxicity; [3]) [mg/kg] | inhibition in vivo at 100 mg/kg (triglycerides; Rattus norvegicus, po, 2 h) [%] | inhibition in vivo at 100 mg/kg (cholesterol; Rattus norvegicus, po, 8 h) [%] | inhibition in vivo at 200 mg/kg (triglycerides; [4]) [%] | Anti-lipemic effect, CS (percent cholesterol inhibition), asterisked (cholesterol; [5]) [%]
CCCCCCCCCCC(=O)COS(=O)(=O)c1c(C)cc(C)cc1C [Compound 80] | 0.032 | 55 | > 4000 | – | – | – | – | – | 63 | –
C=CCCC(=O)COS(=O)(=O)c1c(C)cc(C)cc1C [Compound 86] | 120 | 14 | > 3000 | 79 | 66 | – | – | – | – | –
CCCCCC(=O)COS(=O)(=O)c1c(C)c(C)cc(C)c1C [Compound 90] | 2.6 | 13 | > 3000 | – | – | – | – | – | 59 | –
CCCCC(=O)COS(=O)(=O)c1c(C)cc(C)c(C)c1C [Compound 96] | 0.16 | 12 | > 3000 | 68 | 71 | – | – | – | – | –
CCCCCCCCC(=O)COS(=O)(=O)c1c(C)cc(C)c(C)c1C [Compound 98] | 0.027 | 26 | > 4000 | – | – | – | – | – | 70 | 71
C=CCCCCCCCCC(=O)COS(=O)(=O)c1c(C)cc(C)c(C)c1C [Compound 101] | 30 | 23 | > 4000 | – | – | – | – | – | 54 | –
CCCC(=O)COS(=O)(=O)c1cc(C)ccc1C [Compound 111] | 280 | 4 | > 2000 | 73 | 51 | – | – | – | – | –
CCCC(=O)COS(=O)(=O)c1cc(C)c(C)cc1C [Compound 116] | 1300 | 0 | > 2000 | 90 | 82 | – | – | – | – | –
CCCCC(CCCC)C(=O)COS(=O)(=O)c1ccc(C)cc1 [Compound 129] | 7000 | 30 | > 3000 | 66 | 45 | – | – | – | – | –
CCCCCC(C)C(=O)COS(=O)(=O)c1ccc(C)cc1 (centres unmarked) [Compound 130] | 4000 | 52 | > 3000 | 72 | 51 | – | – | – | – | –
CCCC(CC)C(=O)COS(=O)(=O)c1ccc(OCC)cc1 (centres unmarked) [Compound 134] | 560000 | 2 | > 4500 | 82 | 65 | – | – | – | – | –
CCCC(CCC)C(=O)COS(=O)(=O)c1ccc(OCC)cc1 [Compound 135] | 56000 | 10 | > 4500 | 91 | 92 | – | – | – | – | –
CCOc1ccc(S(=O)(=O)OCC(=O)CC(CC)CC)cc1 [Compound 137] | 10000 | 14 | > 4000 | 81 | 72 | – | – | – | – | –
CCOc1ccc(S(=O)(=O)OCC(=O)CCC(C)C)cc1 [Compound 138] | 4200 | 67 | > 2000 | 95 | 90 | – | – | – | – | –
CCOc1ccc(S(=O)(=O)OCC(=O)CCC(C)CC)cc1 (centres unmarked) [Compound 143] | 2000 | 79 | > 4000 | – | – | – | – | – | 62 | –
CCOc1ccc(S(=O)(=O)OCC(=O)CCCC(C)C)cc1 [Compound 145] | 3300 | 87 | > 3000 | 61 | 62 | – | – | – | – | –
Cc1cc(C)c(S(=O)(=O)OCC(=O)CC(C)C)c(C)c1 [Compound 149] | 1000 | 7 | > 3000 | 81 | 67 | – | – | – | – | –
